Measured values as given in ChEMBL document CHEMBL6182885, “Discovery, Biological Activity, and Biosynthesis of Pinocicolin A, an Antibiotic Isocyanide Metabolite Produced by Penicillium pinophilum” (J Nat Prod, 2025).

What was measured:
[1] = test system: Pseudomonas aeruginosa; assay: Antibacterial activity against Pseudomonas aeruginosa NBRC12689 incubated overnight by disc diffusion assay; type: functional
[2] = test system: Brevibacillus choshinensis; assay: Antibacterial activity against Brevibacillus SP3 incubated overnight by disc diffusion assay; type: functional
[3] = Metal chelating activity assessed as CAS-Cu complex formation in presence of CAS/CuCl2 by UV-Vis spectrophotometric analysis
[4] = test system: Escherichia coli; assay: Antibacterial activity against Escherichia coli NEB10beta incubated overnight by disc diffusion assay; type: functional
[5] = test system: Staphylococcus aureus; assay: Antibacterial activity against Staphylococcus aureus NBRC13276 incubated overnight by disc diffusion assay; type: functional
[6] = test system: Jonesia denitrificans; assay: Antibacterial activity against Listeria denitrificans NBRC15587 incubated overnight by disc diffusion assay; type: functional

| MIC [1] [µg] | EC50 [3] [µM] | MIC [4] [µg] | MIC [5] [µg] | MIC [6] [µg] | SMILES | MIC [2] [µg] |
| --- | --- | --- | --- | --- | --- | --- |
| >100 | 8 | >100 | 5 | 5 | [C-]#[N+][C@H](C(=O)OC[C@@H](O)[C@@H](O)[C@H](O)[C@H](O)COC(=O)[C@@H]([N+]#[C-])C(C)C)C(C)C | 5 |
| >100 |  | >100 | >100 | >100 | CC(C)[C@H](NC=O)C(=O)OC[C@@H](O)[C@@H](O)[C@H](O)[C@H](O)COC(=O)[C@@H](NC=O)C(C)C | >100 |
| >100 | 26.9 | >100 | >100 | >100 | [C-]#[N+][C@H](C(=O)OC[C@@H](O)[C@@H](O)[C@H](O)[C@H](O)COC(=O)[C@@H](NC=O)C(C)C)C(C)C | >100 |
